Consider 15 molecules from PubChem BioAssay (NCI).

Common to all, as to assay: growth of human tumour cells (NCI), 48 h
Test [1] relates to NCI-H460 lung.
In test [2] the test system is SF-539 CNS.
For test [3], the system named is A498 renal.
Test [4] deals with HCC-2998 colon.
Test [5] deals with ACHN renal.
Test [6] deals with U251 CNS.
For test [7], the system named is HOP-92 NSCLC.
For test [8], the system named is HOP-62 NSCLC.
Test [9] has as its system PC-3 prostate.

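Cells were grown in 96-well plates and exposed to each compound for 48 hours at five concentrations; endpoints were interpolated linearly between bracketing concentrations, or set to the highest concentration if not reached. GI50 = concentration required for 50% inhibition of growth. TGI: concentration producing complete growth inhibition.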

Take `COc1ccc(OC)c(N2CC(N)C2=O)c1` (centres undefined): the TGI in test [1], in test [2], in [3], in test [4], in test [5] and in [6] was over 100 µM in each case. The TGI in test [7] and in [8] was over 100 µM throughout.

As to `O=C(Oc1ccc(Cl)cc1)c1ccccc1Nc1ccnc(C(F)(F)F)c1`, the GI50 was 10.5 µM in test [1]; 15 µM in test [2]; 13.6 µM in test [4]; 10.8 µM in test [5]; 20.8 µM in test [7]; 17 µM in [9]. The TGI in test [1] was 35.4 µM; in test [2], 32.7 µM; in test [4], 27.6 µM; in [5] it was 33.1 µM; in test [7] it was over 100 µM; in test [9] it was 63.2 µM.

Turning to `O=c1ccc2ccccc2cc1[O-].O=c1ccc2ccccc2cc1[O-].[O]=[U+2]=[O]`, the GI50 in test [1] is 13.6 µM; in test [3], 18.6 µM; in test [5], 14.2 µM; in test [6] it was 16.5 µM; in test [7], 28.1 µM; in [8], 23.9 µM. In addition, the TGI in [1] was over 100 µM; in [3], 43.1 µM; in [5], 33.1 µM; in test [6] it was 46.5 µM; in test [7] it was 72.1 µM; in test [8] it was 53.8 µM.

With `O=C1C=CC(=O)c2nc3c(cc21)CCC3`, the TGI was over 100 µM in [1]; over 100 µM in test [4]; 33.1 µM in [5]; over 100 µM in test [6]; 34.1 µM in [7]; over 100 µM in test [8].

For `CC(=O)NNc1nc(C)c(C(=O)/C=C/c2ccc(NC(C)=O)cc2)s1`, the TGI in test [1], in test [2], in test [3], in test [4], in test [5] and in [6] was over 100 µM in each case. The TGI in test [7] and in test [8] was over 100 µM throughout.

With `CC(=O)OCCOCNC(=S)N/N=C(\C)c1cnccn1`, the TGI in [1] was over 100 µM; in test [2] it was over 100 µM; in test [3], over 100 µM; in test [4], over 100 µM; in test [5] it was 86.3 µM; in test [6] it was over 100 µM. The TGI in test [8] is over 100 µM.

`CCCCN(CCCC)C(=O)C(=O)C(C(=O)c1ccc(OC)cc1)c1ccc(OC)cc1` (centres undefined): the TGI in test [1], in test [2], in test [4], in [5], in [6] and in test [7] was over 100 µM in each case. For the same molecule, the TGI in test [8] is over 100 µM.

`CC(C)(C)c1cc2ccc(C(N)=O)cc2c(=O)[nH]1`: the TGI in [1], in test [2], in test [3], in test [4], in [5] and in [6] was over 100 µM in each case. For the same molecule, the TGI in [7] and in [8] was over 100 µM throughout.

In the case of `C=CC[C@H](C[C@H](C[C@H](C[C@H](C[C@H](C[C@H](C[C@H](C[C@H](C[C@H](C[C@H](CCCCC)OC)OC)OC)OC)OC)OC)OC)OC)OC)OC`, the TGI in [1], in test [2], in test [3], in [4], in test [5] and in test [6] was over 100 µM throughout. Further, the TGI in test [7] and in test [8] was over 100 µM throughout.

As for `Cc1ccc(/C=C/C(=O)CCN(C)C)cc1`, the TGI is 65.6 µM in test [1]; 31.3 µM in [2]; over 100 µM in test [3]; 32.1 µM in test [4]; 32.9 µM in test [5]; 30 µM in test [6]. Also, the TGI in test [7] was 38.1 µM; in [8], over 100 µM.

On to `O=C(/C=C/c1ccc([N+](=O)[O-])cc1)c1ccc(NCc2nc3ccccc3[nH]2)cc1`, for which the TGI was determined as 5.64 µM in [1]; 8.08 µM in test [2]; 24.1 µM in test [3]; 6.38 µM in test [4]; 23 µM in test [5]; 3.23 µM in test [6]. The TGI in test [7] stood at 21.8 µM; in test [8], 26.7 µM.

Regarding `O=c1c(-c2ccccc2)c2oc(c1-c1ccccc1)CSCc1cccc(c1)CSC2`, the TGI in test [1] was over 100 µM; in [2], 60.4 µM; in [3], 69.6 µM; in [4], over 100 µM; in test [5] it was over 100 µM; in test [6] it was 88.2 µM. The figures for the TGI in test [7] and in test [8] were over 100 µM and 62.4 µM, respectively.

On to `Oc1[nH]c2ccccc2c1N=Nc1nc(-c2ccc(Br)cc2)cs1`, for which the TGI was 65.8 µM in test [1]; 34.3 µM in test [2]; over 100 µM in test [4]; 49.1 µM in test [5]; 28.1 µM in test [6]; 31.7 µM in test [7]. Further, the TGI in [9] was over 100 µM; in test [8], 28.6 µM.

As to `COc1nc(NC2OC(COC(C)=O)C(OC(C)=O)C(OC(C)=O)C2OC(C)=O)c2c(OC(C)=O)cc(=O)oc2n1` (centres undefined), the TGI in test [1] was 34.1 µM; in test [2] it was over 100 µM; in test [3], 30.2 µM; in test [4], over 100 µM; in test [5], 29.6 µM; in [6] it was over 100 µM. Also, the TGI in [7] and in [8] was over 100 µM throughout.

Consider `CCc1c(OC(C)=O)c2c(NC3OCC(OC(C)=O)C(OC(C)=O)C3OC(C)=O)nc(SC)nc2oc1=O` (centres undefined), for which the TGI in test [1], in test [2], in test [3], in [4], in test [5] and in test [6] was over 100 µM throughout. Further, the TGI in [7] and in [8] was over 100 µM throughout.
